The first test addresses human GLUT9 (Homo sapiens (Human), UniProt Q9NRM0). The test is described as follows: Evaluation of human GLUT9 inhibitory activity ([14C] uric acid uptake in human GLUT9 expressing HEK293T cells transduced with Uricase/Hyper). The class given is cell-based. The settings on record: HEK-293T, 10 μM compound, human GLUT9 stably expressing HEK293T cells, read-out: GLUT9 inhibitory rate at 10 μM of compound. As to the method:
A method for measuring GLUT9 inhibitory activity using human GLUT9 expressing cells transduced with Uricase/Hyper is shown hereinafter. GLUT9 inhibitory activity ([…]) of the test compound was calculated based on the intracellular uptake amount of labeled uric acid ([^14C] uric acid) transported by GLUT9.
1. Preparation of Human GLUT9 Expression Plasmid
Human GLUT9S coding region (NM_001001290.1) was amplified by PCR method using PrimeSTAR MAX DNA Polymerase (Takara Bio). The obtained PCR product was subjected to agarose gel electrophoresis, and the desired size of PCR product was purified by QIAquick Gel Extraction Kit (QIAGEN). Next, pEBMulti-Bsd vector (Wako Pure Chemical Industries, Ltd.) was subjected to digestion using restriction enzymes SalI and EcoR V, and linked to the PCR product containing GLUT9S by In-Fusion reaction using In-Fusion HD Cloning Kit (Takara Bio). XL10-Gold Competent Cells (Agilent Technologies) were transformed in In-Fusion reaction solution, and the obtained transfectants were cultured with shaking overnight in LB medium to which Blasticidin S HCl (Thermo Fisher Scientific) was added. Human GLUT9 expression plasmid DNA was prepared from the collected transfectants using EndoFree Plasmid Kit (Takara Bio).
2. Establish of Human GLUT9 Stably Expressing Cell
HEK293T cells (American Type Culture Collection, DS Pharma Biomedical) were seeded in a 6 well plate at 1×10^6 cells/well. Next day, human GLUT9 expression plasmid was transfected by using Lipofectamine 3000 Reagent (Thermo Fisher Scientific) as follows. Lipofectamine 3000 Reagent (5 μL) was diluted with Opti-MEM (125 μL, Thermo Fisher Scientific). Separately, plasmid DNA (2.5 μg) was diluted with Opti-MEM (125 μL), and P3000 Reagent (5 μL) was added thereto. The obtained solution was mixed with the previously obtained diluted solution, and the mixture was left stand at room temperature for 5 min, and added to the cells. Next day, the transfected cells were diluted and reseeded in a 6 well plate at 4×10^5 cells/well, and drug selection was performed in the presence of 30 μg/mL of Blasticidin S HCl, and thereby, Blasticidin-resistant human GLUT9 stably expressing cell line was established. Mock cells were prepared by introducing pEBMulti-Bsd vector into HEK293T cells in a similar manner.
3. Preparation of Uricase/Hyper Expression Plasmid
Uricase/Hyper expression plasmid was prepared by linking the coding regions of Aspergillus Flavus-derived uricase gene and pHyPer-Cyto vector (Evrogen) HyPer gene to the pEBMulti-Hyg vector (Wako Pure Chemical Industries, Ltd.) and then introducing it. The preparation method was performed by reference to Gout and Nucleic Acid Metabolism 2013, 37(2), 93-101, and seven repeated linker sequence of glycine-glycine-glycine-serine was prepared herein.
4. Preparation of Human GLUT9-Uricase/Hyper Coexpressing Cell
Human GLUT9 stably expressing cells were seeded at 3.6×10^7 cells per 225 cm^2 flask. Next day, Uricase/Hyper expression plasmid was transfected by using Lipofectamine 3000 Reagent as follows. Lipofectamine 3000 Reagent (40 μL) was diluted with Opti-MEM (750 μL). Separately, plasmid DNA (20 μg) was diluted with Opti-MEM (750 μL), and P3000 Reagent (40 μL) was added thereto. The obtained solution was mixed with the previously obtained diluted solution, and the mixture was left stand at room temperature for 5 min, and added to the cells. Next day, transfected cells were collected to prepare human GLUT9-Uricase/Hyper coexpressing cells.
5. Evaluation of GLUT9 Inhibitory Activity
Uricase/Hyper transiently-transfected human GLUT9 stably expressing cells or mock cells (blank) were seeded in a 96 well plate (Corning) at 1.6×10^5 cells/well, and cultured overnight at 37° C., 5% CO2. D-MEM/high glucose (Wako Pure Chemical Industries, Ltd.) containing 10% Fetal Bovine Serum (Lifetechnology) and 100 units/ml penicillin/100 μg/ml streptomycin (GIBCO) was used as a medium.
human GLUT9, sequence (Q9NRM0 other isoform, or with tags, fused parts or gaps): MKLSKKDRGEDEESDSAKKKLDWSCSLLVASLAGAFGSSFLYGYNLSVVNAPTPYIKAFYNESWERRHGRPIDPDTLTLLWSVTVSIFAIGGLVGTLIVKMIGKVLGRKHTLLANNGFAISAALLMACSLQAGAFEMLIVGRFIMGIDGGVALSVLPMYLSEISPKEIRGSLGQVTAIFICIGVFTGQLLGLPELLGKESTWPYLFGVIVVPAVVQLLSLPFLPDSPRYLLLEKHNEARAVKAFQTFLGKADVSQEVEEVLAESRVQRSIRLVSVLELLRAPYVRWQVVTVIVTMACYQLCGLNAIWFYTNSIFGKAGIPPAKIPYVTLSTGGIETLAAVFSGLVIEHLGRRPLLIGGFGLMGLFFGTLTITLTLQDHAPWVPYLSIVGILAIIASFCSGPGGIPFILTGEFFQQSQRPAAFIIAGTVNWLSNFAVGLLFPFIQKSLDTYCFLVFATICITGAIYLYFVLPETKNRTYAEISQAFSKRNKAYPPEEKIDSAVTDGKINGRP
Regarding `CCCCc1cnc(-c2ccc(C(=O)O)cc2)c(-c2ccc(C(=O)O)cc2)n1` [Example 7], the inhibition at 10 µM turned out to be 9%.

Take `CCCCc1cnc(-c2ccc(OC)c(C(=O)O)c2)c(-c2ccc(C(=O)O)cc2)n1` [Example 15]: the inhibition at 10 µM worked out at 5%.

As to `CCCCc1cnc(-c2ccc(C(=O)N(C)C)cc2)c(-c2ccc(C(=O)O)cc2)n1` [Example 22], the inhibition at 10 µM is 9%.

Regarding `CCCCc1cnc(-c2ccc(O)cc2)c(-c2ccc(C(=O)O)cc2)n1` [Example 33], the inhibition at 10 µM is 28%.

Regarding `COc1ccc(-c2ncc(CC3CCCCC3)cc2-c2ccc(C(=O)O)cc2)cc1` [Example 47], the inhibition at 10 µM is 47%.

With `COc1ccc(-c2ncc(C3CCOCC3)cc2-c2ccc(C(=O)O)cc2)cc1` [Example 60], the inhibition at 10 µM worked out at 45%.

The test is the same for the next values; noted with them: final 300 μM uric acid, 6 min, human GLUT9 stably expressing HEK293T cells, read-out: humans GLUT9 inhibitory activity (IC50 value (μM)).
One may read the IC50 as the concentration needed to halve the response being measured. With `CCCCc1cnc(-c2ccc(OC)cc2)c(-c2ccc(C(=O)O)cc2)n1` [Example 1], the IC50 is 0.0807 µM.

As for `CCCCc1cnc(-c2ccc(OC)cc2C)c(-c2ccc(C(=O)O)cc2)n1` [Example 2], the half-maximal inhibitory concentration (IC50) was 0.946 µM.

`CCCCc1cnc(-c2ccc(OC)cc2F)c(-c2ccc(C(=O)O)cc2)n1` [Example 3]: the 50% inhibitory concentration (IC50) was 0.134 µM.

With `CCCCc1cnc(-c2ccc(OC)cc2)c(-c2ccc(C(=O)O)cc2F)n1` [Example 5], the 50% inhibitory concentration (IC50) was determined as 0.0626 µM.

For the compound `CCCCc1cnc(-c2ccc(OC)cc2)c(-c2ccc(C(=O)O)c(OC)c2)n1` [Example 6], the 50% inhibitory concentration (IC50) was 0.141 µM.

Regarding `CCCCc1cnc(-c2ccc(C#N)cc2)c(-c2ccc(C(=O)O)cc2)n1` [Example 9], the IC50 was determined as 0.483 µM.

Regarding `CCCCc1cnc(-c2ccc(F)cc2)c(-c2ccc(C(=O)O)cc2)n1` [Example 10], the IC50 turned out to be 1.78 µM.

On to `CCCCc1cnc(-c2ccc(OC)c(F)c2)c(-c2ccc(C(=O)O)cc2)n1` [Example 11], for which the concentration for half-maximal inhibition (IC50) turned out to be 0.0659 µM.

As for `COc1ccc(-c2ncc3c(c2-c2ccc(C(=O)O)cc2)CCCC3)cc1` [Example 12], the IC50 was 5.06 µM.

Regarding `CCCCc1cnc(-c2ccc(OC)cc2)c(-c2ccc(C(=O)O)c(F)c2)n1` [Example 14], the IC50 came to 0.0914 µM.

As for `CCCCc1cnc(-c2ccc(OC)c(Cl)c2)c(-c2ccc(C(=O)O)cc2)n1` [Example 16], the IC50 came to 0.0819 µM.

Consider `CCCCc1cnc(-c2ccc(OC)c(C#N)c2)c(-c2ccc(C(=O)O)cc2)n1` [Example 17], for which the IC50 came out at 0.692 µM.

On to `CCCCc1cnc(-c2ccc(OC)cc2)c(-c2ccc(C(=O)O)cc2)c1` [Example 18], for which the IC50 turned out to be 0.0942 µM.

As for `CCCCc1cnc(-c2ccc(OC)c(C(F)(F)F)c2)c(-c2ccc(C(=O)O)cc2)n1` [Example 19], the concentration for half-maximal inhibition (IC50) is 3.07 µM.

Take `COCCCCc1cnc(-c2ccc(OC)cc2)c(-c2ccc(C(=O)O)cc2)n1` [Example 20]: the IC50 was determined as 0.12 µM.

Consider `CCCCc1cnc(-c2cc(F)c(OC)c(F)c2)c(-c2ccc(C(=O)O)cc2)n1` [Example 21], for which the IC50 is 0.0607 µM.

`CCCCc1cnc(-c2ccc(C(F)(F)F)c(OC)c2)c(-c2ccc(C(=O)O)cc2)n1` [Example 23]: the half-inhibitory concentration (IC50) was 0.992 µM.

Regarding `CCCCc1cnc(-c2ccc(C(F)(F)F)c(F)c2)c(-c2ccc(C(=O)O)cc2)n1` [Example 24], the concentration for half-maximal inhibition (IC50) is 0.134 µM.

As to `CCCCc1cnc(-c2ccc(C(F)(F)F)c(C)c2)c(-c2ccc(C(=O)O)cc2)n1` [Example 26], the half-inhibitory concentration (IC50) worked out at 0.154 µM.

As for `CCCCc1cnc(-c2ccc(C(F)(F)F)c(C(F)(F)F)c2)c(-c2ccc(C(=O)O)cc2)n1` [Example 28], the IC50 came out at 4.25 µM.

Turning to `CCCCc1cnc(-c2ccc(Cl)cc2)c(-c2ccc(C(=O)O)cc2)n1` [Example 31], the half-maximal inhibitory concentration (IC50) is 0.134 µM.

As to `CCCCc1cnc(-c2ccc3c(c2)CCO3)c(-c2ccc(C(=O)O)cc2)n1` [Example 32], the IC50 was found to be 0.0888 µM.

As to `CCCCc1cnc(-c2ccc(C3CC3)cc2)c(-c2ccc(C(=O)O)cc2)n1` [Example 34], the concentration for half-maximal inhibition (IC50) amounted to 0.124 µM.

Consider `COCCCCc1cnc(-c2cc(F)c(OC)c(F)c2)c(-c2ccc(C(=O)O)cc2)n1` [Example 35], for which the 50% inhibitory concentration (IC50) is 0.119 µM.

Regarding `CCCc1cnc(-c2ccc(C(F)(F)F)cc2)c(-c2ccc(C(=O)O)cc2)n1` [Example 36], the IC50 was found to be 0.189 µM.

`CCCc1cnc(-c2ccc(OC)cc2)c(-c2ccc(C(=O)O)cc2)n1` [Example 37]: the IC50 worked out at 0.111 µM.

Turning to `CCCCc1cnc(-c2ccc(OC)cc2)c(-c2ccc(CC(=O)O)cc2)n1` [Example 38], the half-inhibitory concentration (IC50) was determined as 0.865 µM.

For `CCCCc1cnc(-c2ccc(OC)cc2)c(-c2ccc(C(=O)O)cc2)c1C` [Example 39], the half-maximal inhibitory concentration (IC50) worked out at 1.45 µM.

With `COc1ccc(-c2ncc(CCC3CCCCC3)cc2-c2ccc(C(=O)O)cc2)cc1` [Example 42], the IC50 was determined as 6.5 µM.

With `COc1ccc(-c2ncc(CCCOCCO)cc2-c2ccc(C(=O)O)cc2)cc1` [Example 43], the half-inhibitory concentration (IC50) turned out to be 7.13 µM.

As to `COc1ccc(-c2ncc(CCCC3(O)CCC3)cc2-c2ccc(C(=O)O)cc2)cc1` [Example 44], the half-inhibitory concentration (IC50) is 1.65 µM.

As to `CCCCc1cnc(-c2ccc(OC)cc2)c(-c2ccc(C(C)(C)C(=O)O)cc2)n1` [Example 48], the IC50 is 7.12 µM.

For `CCCCc1cnc(-c2ccc3c(c2)CCCO3)c(-c2ccc(C(=O)O)cc2)n1` [Example 49], the 50% inhibitory concentration (IC50) turned out to be 0.201 µM.

As to `CCCCc1cnc(-c2ccc3c(c2)OCCO3)c(-c2ccc(C(=O)O)cc2)n1` [Example 50], the IC50 came to 0.133 µM.

`COc1ccc(-c2ncc(CCCCO)cc2-c2ccc(C(=O)O)cc2)cc1` [Example 51]: the 50% inhibitory concentration (IC50) was found to be 0.962 µM.

On to `COc1ccc(-c2ncc(CCC3CC3)cc2-c2ccc(C(=O)O)cc2)cc1` [Example 52], for which the IC50 was 0.119 µM.

Consider `CCCCc1cnc(-c2ccc(C(C)(C)C)cc2)c(-c2ccc(C(=O)O)cc2)n1` [Example 55], for which the concentration for half-maximal inhibition (IC50) turned out to be 3.99 µM.

For `CCc1cnc(-c2ccc(OC)cc2)c(-c2ccc(C(=O)O)cc2)c1` [Example 56], the half-inhibitory concentration (IC50) was found to be 0.18 µM.

Turning to `COc1ccc(-c2ncc(C(C)C)cc2-c2ccc(C(=O)O)cc2)cc1` [Example 57], the IC50 was found to be 0.344 µM.

As to `COc1ccc(-c2ncc(CC(C)C)cc2-c2ccc(C(=O)O)cc2)cc1` [Example 58], the IC50 was found to be 0.052 µM.

With `COc1ccc(-c2ncc(C3CCCC3)cc2-c2ccc(C(=O)O)cc2)cc1` [Example 59], the half-maximal inhibitory concentration (IC50) was 0.132 µM.

Consider `COc1ccc(-c2ncc(CCCO)cc2-c2ccc(C(=O)O)cc2)cc1` [Example 61], for which the IC50 is 5.59 µM.

Regarding `COc1ccc(-c2ncc(CCC(F)(F)F)cc2-c2ccc(C(=O)O)cc2)cc1` [Example 62], the concentration for half-maximal inhibition (IC50) is 0.127 µM.

In the case of `COc1ccc(-c2ncc(CCC3CCCC3)cc2-c2ccc(C(=O)O)cc2)cc1` [Example 63], the 50% inhibitory concentration (IC50) came to 0.659 µM.

`CCCCc1cnc(-c2cc(F)c(OC)c(Cl)c2)c(-c2ccc(C(=O)O)cc2)n1` [Example 64]: the IC50 stood at 0.0987 µM.

In the case of `CCCCc1cnc(-c2cc(Cl)c(OC)c(Cl)c2)c(-c2ccc(C(=O)O)cc2)n1` [Example 65], the half-inhibitory concentration (IC50) worked out at 0.0946 µM.

As to `CCCc1cnc(-c2cc(F)c(OC)c(F)c2)c(-c2ccc(C(=O)O)cc2)n1` [Example 66], the half-maximal inhibitory concentration (IC50) was found to be 0.077 µM.

As for `CCCCc1cnc(-c2ccc(OC)cc2)c(-c2cc(F)c(C(=O)O)c(F)c2)n1` [Example 69], the IC50 turned out to be 0.856 µM.

Consider `CCCCc1cnc(-c2ccc(OC)cc2)c(-c2ccc(OCC(=O)O)cc2)n1` [Example 70], for which the half-inhibitory concentration (IC50) amounted to 1.67 µM.

For `CCCCc1cnc(-c2ccc(OC)cc2)c(-c2ccc(CCC(=O)O)cc2)n1` [Example 71], the half-maximal inhibitory concentration (IC50) came to 0.132 µM.

The values are drawn from patent US10752596B2, “Nitrogen-containing heteroaryl compound and pharmaceutical use thereof” (JAPAN TOBACCO INC., priority 2017, dated 2020).
